This is an account of results in EP0111607A1, “Tropyl and pseudotropyl alkyl-benzoates and their use in migraine treatment” (MERRELL TORAUDE ET COMPAGNIE, priority 1982, dated 1984).

In the first experiment the target is T1, 5-HT M-receptor (Oryctolagus cuniculus, UniProt G1TUQ4).
T1 sequence (G1TUQ4 24-513): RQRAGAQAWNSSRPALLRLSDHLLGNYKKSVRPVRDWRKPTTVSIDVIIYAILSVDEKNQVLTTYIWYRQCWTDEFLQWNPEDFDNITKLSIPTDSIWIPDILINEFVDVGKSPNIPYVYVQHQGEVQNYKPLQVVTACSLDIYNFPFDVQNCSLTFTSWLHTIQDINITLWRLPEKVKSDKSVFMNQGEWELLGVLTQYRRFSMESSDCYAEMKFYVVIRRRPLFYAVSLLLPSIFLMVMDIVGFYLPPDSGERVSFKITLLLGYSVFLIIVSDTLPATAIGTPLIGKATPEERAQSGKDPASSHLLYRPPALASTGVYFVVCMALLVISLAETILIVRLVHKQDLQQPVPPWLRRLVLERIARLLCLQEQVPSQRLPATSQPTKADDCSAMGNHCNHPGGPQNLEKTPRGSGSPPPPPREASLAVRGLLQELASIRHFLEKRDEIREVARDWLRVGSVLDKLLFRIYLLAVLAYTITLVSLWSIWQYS
Description: pA2 against 5-HT in the isolated rabbit heart. As to conditions: Table II, representative compounds of Formula I. The procedure:
The activity of the compounds against 5-HT can be assessed by determining their pA2 values in the isolated rabbit heart as described by Fozard et at Europ. J. Pharmacol. 59, 195-210 (1979). In the method described the molar concentration of antagonist which reduces the effects of twice the ED50 of 5-HT to that of the ED50 in the absence of antagonist is determined. The pA2 value is the negative logarithm of said molar concentrations.
In the case of `Cc1cc(C)cc(C(=O)OC2CC3CCC(C2)N3C)c1` (stereo not drawn) [pseudotropyl 3,5-dimethylbenzoate, 3,5-DIMETHYL-BENZOIC ACID EXO-8-METHYL-8-AZABICYCLO[3,2,1]OCT-3-YL ESTER], the “pA2 5-HT” value was found to be 8.9.

Turning to `Cc1ccc(C(=O)OC2CC3CCC(C2)N3C)c(C)c1` (stereo not shown) [tropyl 2,4-dimethylbenzoate], the “pA2 5-HT” value is listed as 8.8.

Regarding `Cc1ccc(C)c(C(=O)OC2CC3CCC(C2)N3C)c1` (stereo not shown) [tropyl 2,5-dimethylbenzoate], the “pA2 5-HT” value is recorded as 8.6.

Turning to `Cc1ccccc1C(=O)OC1CC2CCC(C1)N2C` (stereo not shown) [tropyl 2-methylbenzoate], the “pA2 5-HT” value was 8.1.

Turning to `Cc1ccc(C(=O)OC2CC3CCC(C2)N3C)cc1C` (stereo not drawn) [tropyl 3,4-dimethylbenzoate, 3,4-DIMET[…] ENDO-8-METHYL-8-AZABICYCLO[3,2,1]OCT-3-YL ESTER], the “pA2 5-HT” value amounted to 8.2.

The same experiment, now with this note: Table III, related compounds for comparative purposes.
For the compound `CN1C2CCC1CC(OC(=O)c1ccccc1)C2` (stereo not shown) [pseudotropyl benzoate], the “pA2 5-HT” value is listed as 7.0.

As for `CN1C2CCC1CC(OC(=O)c1ccc(Cl)c(Cl)c1)C2` (stereo not shown) [pseudotropyl-3,4-dichlorobenzoate], the “pA2 5-HT” value was 7.5.

With `CN1C2CCC1CC(OC(=O)c1ccc(Cl)cc1)C2` (stereo not shown) [pseudotropyl-4-chlorobenzoate], the “pA2 5-HT” value came out at 6.7.

On to `Cc1cccc(C(=O)OC2CC3CCC(C2)N3C)c1` (stereo not shown) [tropyl 3-methylbenzoate], for which the “pA2 5-HT” value is on record as 8.1.

The next experiment addresses T1, 5-HT M-receptor.
Test: not given
Conditions: 5-HT M-receptor antagonism; reported by Fozard et al., Eur. J. Pharmacol. 59(1979) and 49(1978), same procedure; cited from earlier work.
What is called pA2 is a measure of antagonist potency on a negative log scale. On to `CCN(CC)CCNC(=O)c1cc(Cl)c(N)cc1OC` [metoclopramide], for which the pA2 is 7.2.

On to `COC(=O)[C@H]1[C@@H](OC(=O)c2ccccc2)C[C@@H]2CC[C@H]1N2` [nor(-)cocaine], for which the pA2 is 7.7.

`CN1C2CCC1CC(OC(=O)c1ccccc1)C2` (stereo not shown) [pseudotropyl benzoate]: the pA2 is 7.0.

`CN1[C@@H]2CC[C@H]1C[C@@H](OC(=O)c1ccccc1)C2` [tropyl benzoate]: the pA2 is listed as 7.2.

The experiment is the same for the next values; noted with them: 5-HT M-receptor antagonism; tests referred to with European Patent Application No. 82401060.7; cited from earlier work.
Regarding `COc1cc(C(=O)OC2CC3CCC(C2)N3C)cc(OC)c1OC` (stereo not shown) [pseudotropyl-3,4,5-trimethoxybenzoate], the pA2 is 5.7.

In the case of `COc1cc(OC)cc(C(=O)OC2CC3CCC(C2)N3C)c1` (stereo not shown) [pseudotropyl-3,5-dimethoxybenzoate], the pA2 was 6.6.

Take `COc1ccc(C(=O)O[C@H]2C[C@H]3CC[C@@H](C2)N3C)cc1OC` [tropyl 3,4-dimethoxybenzoate]: the pA2 is 7.2.

Turning to `CN1C2CCC1CC(OC(=O)c1ccc(Cl)cc1)C2` (stereo not shown) [tropyl 4-chlorobenzoate], the pA2 is listed as 7.0.

As for `Cc1ccc(C(=O)O[C@H]2C[C@H]3CC[C@@H](C2)N3C)cc1` [tropyl 4-methylbenzoate], the pA2 is reported as 7.8.

With `CN1C2CCC1CC(OC(=O)c1ccc(Cl)c(Cl)c1)C2` (stereo not shown) [tropyl-3,4-dichlorobenzoate], the pA2 is on record as 7.8.
